Assay results published in patent US10226503B2, “Plant extract composition for reducing topical fat and promoting weight loss as well as applications thereof” (Caliway Biopharmaceuticals Co., Ltd., priority 2014, dated 2019).

Legend:
[1] = tested on: mature adipocytes (3T3-L1); experiment: Adipocyte apoptosis assay (V), Annexin V/PI flow cytometry; assay type: cell-based; conditions: 50 ppm, 24 hours, DMSO control 5.14±2.05%
Description: 3T3-L1 cells were incubated in 12-well plates with 1×10^5 cells per well. The medium was replaced with a DMI medium containing 5 μg/ml of insulin, 0.1 μM of dexamethasone, and 0.5 mM of 3-isobutyl-1-methylxanthine (referred as IBMX) on the third day of incubation. After seven days incubation in the medium containing differentiation agent and waiting until the adipocyte cells matures, with the exception of the DMSO solvent control group, 50 ppm of curcumin, resveratrol, composition UL003C6, composition UL003C5, composition UL003C4, composition UL003C3, composition UL003C2, composition UL003C1, composition UL003B, composition UL003R1, composition UL003R2, and composition UL003R3 were added to different wells respectively; there are 13 groups in the experiment, and four replicates were performed in each group.
Please refer to Table 1, which presents the experimental matters and their final concentration in each group. […]
After administration process and 24 hours incubation, cells were collected and Annexin V/PI stain was performed. Cell apoptosis was analyzed by flow cytometry, wherein Annexin V−PI− cells represented the number of the survival mature adipocytes, and Annexin V+PI+ cells represented the number of the apoptotic mature adipocytes; this method is used to compare the apoptosis degree induced by the experimental matters in each group.

[2] = Embodiment 10: resveratrol:curcumin ratio effect (with ELP) on body weight gain of high-fat diet rats; assay type: in vivo, Sprague-Dawley rats; conditions: 5 mg/mL with ELP, relative to HFD group 100.0±25.7%
Description: The body weight of each rat was recorded and defined as the “post-experimental body weight” of each rat. The “total body weight gain” of each rat was obtained by subtracting its “pre-experimental body weight” from its “post-experimental body weight”. The “relative weight gain” was obtained by dividing the total body weight gain of each group by the total body weight gain of the HFD group.
The only differences were the ratio of resveratrol and curcumin.
In this experiment, the ratios of resveratrol to curcumin in the first group to the eighth group were 0:1, 1:0, 1:19, 9:1, 1:1, 1:30, 1:50, 20:1, respectively, and the final concentrations of resveratrol and curcumin in the pharmaceutical compositions prepared in the first to the eighth group were 5 mg/mL. That is, the preparation method of pharmaceutical composition in the first to the eighth group, the weight ratios of resveratrol to curcumin were 0:1, 1:0, 1:19, 9:1, 1:1, 1:30, 1:50, 20:1, respectively, and the final concentrations of resveratrol and curcumin in the prepared pharmaceutical compositions were 5 mg/mL. Wherein, when the final concentration of drug was presented as mg/mL, it indicated the number of milligrams of resveratrol and curcumin per milliliter of pharmaceutical composition.

[3] = tested on: adipose tissue in the inferior inguinal region; experiment: Embodiment 10: observation of the injected inferior inguinal region after dissection; assay type: in vivo, Sprague-Dawley rats; conditions: FIG. 11A-F
Source text: There were 9 groups in this experiment, that is, the HFD group, the curcumin group, the resveratrol group, the UL003C group, the UL003R group, the UL005 group, the UL006 group, the UL003C6 group, and the UL003R4 group. The rats were fed and injected in the same manner described in Embodiment 9.

[4] = tested on: lower inguinal subcutaneous fat; experiment: Embodiment 10: resveratrol:curcumin ratio effect (with ELP) on subcutaneous fat of high-fat diet rats; assay type: in vivo, Sprague-Dawley rats; conditions: 5 mg/mL with ELP, injected as in Embodiment 9, relative to HFD group 100±22.3%
Source text: The bilateral lower inguinal subcutaneous fat pads of rats were dissected and weighed, and the weights of the bilateral lower inguinal subcutaneous fat pads were summed to calculate the amount of lower inguinal subcutaneous fat. […] The data were presented as mean±SD and analyzed by one-way ANOVA. Statistical results were shown as symbols or letters. Different symbols or letters indicates statistically significant difference (p<0.05), and identical symbols or letters indicates no statistically significant difference (p>0.05).
The preparation of pharmaceutical composition (curcumin solution, resveratrol solution, UL003C solution, UL003R solution, UL005 solution, UL006 solution, UL003C6 solution, or UL003R4 solution) in each group was roughly the same as the experimental procedure in Experiment 9. The only differences were the ratio of resveratrol and curcumin. In this experiment, the guideline of adding all of the ratio of resveratrol and curcumin, the weight of ELP, and the weight of normal saline for injection was shown in Table 1.
In this experiment, the ratios of resveratrol to curcumin in the first group to the eighth group were 0:1, 1:0, 1:19, 9:1, 1:1, 1:30, 1:50, 20:1, respectively, and the final concentrations of resveratrol and curcumin in the pharmaceutical compositions prepared in the first to the eighth group were 5 mg/mL. […]

[5] = tested on: mature adipocytes (3T3-L1); experiment: Adipocyte apoptosis assay (IV), Annexin V/PI flow cytometry; assay type: cell-based; conditions: 100 ppm, 24 hours
Description: In this embodiment, the effect of composition UL003C in the present invention on mature adipocytes apoptosis promotion was compared with that of the well-known sodium deoxycholate. In this embodiment, 3T3-L1 cells were incubated in 12-well plates with 1×10^5 cells per well. The medium was replaced with an incubation fluid containing 5 μg/ml of insulin differentiation agent, 1 μM of dexamethasone, and 0.5 mM of 3-isobutyl-1-methylxanthine on the fourth day of incubation. After four days incubation in the incubation fluid containing differentiation agent and waiting until the adipocyte cells matures, with the exception of the DMSO solvent control group, 100 ppm of composition UL003C and sodium deoxycholate were added to different wells respectively; there are three groups in the experiment, and three replicates were performed in each group. After administration process and 24 hours incubation, cells were collected and Annexin V/PI stain was performed. Cell apoptosis was analyzed by flow cytometry, wherein Annexin V−PI− cells represented the number of the survival mature adipocytes, and Annexin V+PI+ cells represented the number of the apoptotic mature adipocytes; this method is used to compare the apoptosis degree induced by the experimental matters in the two groups.

With `COc1cc(/C=C/C(=O)CC(=O)/C=C/c2ccc(O)c(OC)c2)ccc1O` [curcumin] the “percentage of apoptotic cells” value [1] was 15.43±4.31%, the relative weight gain [2] was 103.6±7.2% and the “ulcer / curcumin precipitation in the inferior inguinal region (injection site)” value [3] was “curcumin precipitation was observed”. For the same compound, the “relative weight of the lower inguinal subcutaneous fat” value [4] was 90.4±12.6%.
In the case of `Oc1ccc(C=Cc2cc(O)cc(O)c2)cc1` [resveratrol], the “percentage of apoptotic cells” value [1] is reported as 8.48±3.23%, the relative weight gain [2] is reported as 91.7±11.4% and the “ulcer / curcumin precipitation in the inferior inguinal region (injection site)” value [3] is reported as “ulcer”. The “relative weight of the lower inguinal subcutaneous fat” value [4] was 85.7±5.1%.
In the case of sodium deoxycholate, the “mature adipocytes apoptosis compared to DMSO solvent control group” value [5] is reported as “no significant difference”.
